# Measurements reported in PubChem BioAssay AID1845215 (Molecular Pharmacology Branch, DTP, NCI, 2023).
# pIC50: −log10 of the molar value.
# System: SW 1271 complex tumor spheroid viability
# Assay: Anticancer human tumor SW 1271 cell line growth inhibition;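 note: spheroids exposed to agents for seven days before readout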;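 for viability, T/C: percent of DMSO vehicle control luminescence so 100% = vehicle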
# Conditions: for pIC50: curve of first compound; for viability, T/C: stronger effect = lower value
# How it was run: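 Single agents and combinations were tested on spheroids built from tumor cells plus HUVEC and hMSC, at half-log dilutions starting at or near clinical Cmax, else 10 microM; final DMSO 0.25% (v/v).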
# [1] = second compound 1 µM, first compound 0.0316 µM
# [2] = second compound 1 µM, first compound 0.1 µM
# [3] = second compound 1 µM, first compound 0.316 µM
# [4] = second compound 1 µM, first compound 1 µM
# [5] = second compound 1 µM, first compound 3.16 µM
# [6] = second compound 1 µM, first compound 10 µM
# [7] = second compound 3.16 µM, first compound 0.0316 µM
# [8] = second compound 3.16 µM, first compound 0.1 µM
# [9] = second compound 3.16 µM, first compound 0.316 µM
# [10] = second compound 3.16 µM, first compound 1 µM
# [11] = second compound 3.16 µM, first compound 3.16 µM
# [12] = second compound 3.16 µM, first compound 10 µM
# [13] = second compound 10 µM, first compound 0.0316 µM
# [14] = second compound 10 µM, first compound 0.1 µM
# [15] = second compound 10 µM, first compound 0.316 µM
# [16] = second compound 10 µM, first compound 1 µM
# [17] = second compound 10 µM, first compound 3.16 µM
# [18] = second compound 10 µM, first compound 10 µM
# [19] = second compound 31.6 µM, first compound 0.0316 µM
# [20] = second compound 31.6 µM, first compound 0.1 µM
# [21] = second compound 31.6 µM, first compound 0.316 µM
# [22] = second compound 31.6 µM, first compound 1 µM
# [23] = second compound 31.6 µM, first compound 3.16 µM
# [24] = second compound 31.6 µM, first compound 10 µM
# [25] = second compound 100 µM, first compound 0.0316 µM
# [26] = second compound 100 µM, first compound 0.1 µM
# [27] = second compound 100 µM, first compound 0.316 µM
# [28] = second compound 100 µM, first compound 1 µM
# [29] = second compound 100 µM, first compound 3.16 µM
# [30] = second compound 100 µM, first compound 10 µM
structure (smiles),measurement,setting,value
CC1COCCN1c1cc(-c2ccnn2C)c2ccnc(-c3ccn[nH]3)c2n1 (stereo not given) + Cn1nnc2c(C(N)=O)ncn2c1=O,pIC50,second compound 1 µM,7.17
same,pIC50,second compound 3.16 µM,7.15
same,pIC50,second compound 10 µM,7.17
same,pIC50,second compound 31.6 µM,7.42
same,pIC50,second compound 100 µM,> 7.50
same,"viability, T/C",[1],71.4%
same,"viability, T/C",[2],38.7%
same,"viability, T/C",[3],15.1%
same,"viability, T/C",[4],6.03%
same,"viability, T/C",[5],3.67%
same,"viability, T/C",[6],3.45%
same,"viability, T/C",[7],76.6%
same,"viability, T/C",[8],38.2%
same,"viability, T/C",[9],11.3%
same,"viability, T/C",[10],5.45%
same,"viability, T/C",[11],3.38%
same,"viability, T/C",[12],2.94%
same,"viability, T/C",[13],73.8%
same,"viability, T/C",[14],37.9%
same,"viability, T/C",[15],12.3%
same,"viability, T/C",[16],5.29%
same,"viability, T/C",[17],2.98%
same,"viability, T/C",[18],3.83%
same,"viability, T/C",[19],55.4%
same,"viability, T/C",[20],23.2%
same,"viability, T/C",[21],9.1%
same,"viability, T/C",[22],4.96%
same,"viability, T/C",[23],3.48%
same,"viability, T/C",[24],3.25%
same,"viability, T/C",[25],33.5%
same,"viability, T/C",[26],12.6%
same,"viability, T/C",[27],6.3%
same,"viability, T/C",[28],3.95%
same,"viability, T/C",[29],3.48%
same,"viability, T/C",[30],2.85%
COc1cc(C)[nH]c(=O)c1CN1CCc2c(Cl)cc(C(OC)C3COC3)c(Cl)c2C1=O (stereo not given) + Cn1nnc2c(C(N)=O)ncn2c1=O,pIC50,second compound 1 µM,< 5.00
same,pIC50,second compound 3.16 µM,< 5.00
same,pIC50,second compound 10 µM,< 5.00
same,pIC50,second compound 31.6 µM,< 5.00
same,pIC50,second compound 100 µM,< 5.00
same,"viability, T/C",[1],92.5%
same,"viability, T/C",[2],90.5%
same,"viability, T/C",[3],91.2%
same,"viability, T/C",[4],86.1%
same,"viability, T/C",[5],77.5%
same,"viability, T/C",[6],76.7%
same,"viability, T/C",[7],98.1%
same,"viability, T/C",[8],90.2%
same,"viability, T/C",[9],90.3%
same,"viability, T/C",[10],94.4%
same,"viability, T/C",[11],85%
same,"viability, T/C",[12],82.3%
same,"viability, T/C",[13],98.2%
same,"viability, T/C",[14],93.5%
same,"viability, T/C",[15],96.1%
same,"viability, T/C",[16],83.8%
same,"viability, T/C",[17],87.8%
same,"viability, T/C",[18],81.4%
same,"viability, T/C",[19],97.1%
same,"viability, T/C",[20],89.8%
same,"viability, T/C",[21],99.3%
same,"viability, T/C",[22],100%
same,"viability, T/C",[23],88.5%
same,"viability, T/C",[24],80.2%
same,"viability, T/C",[25],88.7%
same,"viability, T/C",[26],96.3%
same,"viability, T/C",[27],84.2%
same,"viability, T/C",[28],80.7%
same,"viability, T/C",[29],77.3%
same,"viability, T/C",[30],76.1%
COc1ccc([C@@H](O)c2cc(-c3ncnc4cc(N5CCOCC5)ccc34)c(F)cc2Cl)nn1 + Cn1nnc2c(C(N)=O)ncn2c1=O,pIC50,second compound 1 µM,6.10
same,pIC50,second compound 3.16 µM,5.82
same,pIC50,second compound 10 µM,5.74
same,pIC50,second compound 31.6 µM,5.85
same,pIC50,second compound 100 µM,6.09
same,"viability, T/C",[1],95.7%
same,"viability, T/C",[2],89.6%
same,"viability, T/C",[3],91.7%
same,"viability, T/C",[4],39.6%
same,"viability, T/C",[5],38.3%
same,"viability, T/C",[6],11%
same,"viability, T/C",[7],115%
same,"viability, T/C",[8],97.8%
same,"viability, T/C",[9],82.5%
same,"viability, T/C",[10],60.7%
same,"viability, T/C",[11],32.3%
same,"viability, T/C",[12],10%
same,"viability, T/C",[13],97.1%
same,"viability, T/C",[14],103%
same,"viability, T/C",[15],85.2%
same,"viability, T/C",[16],65.1%
same,"viability, T/C",[17],36.2%
same,"viability, T/C",[18],10.9%
same,"viability, T/C",[19],101%
same,"viability, T/C",[20],96.2%
same,"viability, T/C",[21],93.4%
same,"viability, T/C",[22],55.6%
same,"viability, T/C",[23],30.3%
same,"viability, T/C",[24],10.2%
same,"viability, T/C",[25],83.8%
same,"viability, T/C",[26],82.3%
same,"viability, T/C",[27],66.8%
same,"viability, T/C",[28],42.9%
same,"viability, T/C",[29],28.6%
same,"viability, T/C",[30],9.15%
Cc1cc(C)c(CNC(=O)c2cc(-c3ccc(CN4CCOCC4)cc3)cc3c2cnn3C2CCCC2)c(=O)[nH]1 + Cn1nnc2c(C(N)=O)ncn2c1=O,pIC50,second compound 1 µM,< 5.00
same,pIC50,second compound 3.16 µM,< 5.00
same,pIC50,second compound 10 µM,< 5.00
same,pIC50,second compound 31.6 µM,< 5.00
same,pIC50,second compound 100 µM,< 5.00
same,"viability, T/C",[1],98.6%
same,"viability, T/C",[2],92.6%
same,"viability, T/C",[3],93.5%
same,"viability, T/C",[4],91.5%
same,"viability, T/C",[5],88.7%
same,"viability, T/C",[6],73.1%
same,"viability, T/C",[7],93.7%
same,"viability, T/C",[8],101%
same,"viability, T/C",[9],95.3%
same,"viability, T/C",[10],99.2%
same,"viability, T/C",[11],83.9%
same,"viability, T/C",[12],79.1%
same,"viability, T/C",[13],97.7%
same,"viability, T/C",[14],91.7%
same,"viability, T/C",[15],98.8%
same,"viability, T/C",[16],96.7%
same,"viability, T/C",[17],81.5%
same,"viability, T/C",[18],76.2%
same,"viability, T/C",[19],106%
same,"viability, T/C",[20],103%
same,"viability, T/C",[21],102%
same,"viability, T/C",[22],100%
same,"viability, T/C",[23],74.5%
same,"viability, T/C",[24],62%
same,"viability, T/C",[25],91.8%
same,"viability, T/C",[26],90.4%
same,"viability, T/C",[27],79.8%
same,"viability, T/C",[28],81.7%
same,"viability, T/C",[29],70.7%
same,"viability, T/C",[30],52.7%
Cc1sc2c(c1C)C(c1ccc(Cl)cc1)=NC(CC(=O)Nc1ccc(O)cc1)c1nnc(C)n1-2 (stereo not given) + Cn1nnc2c(C(N)=O)ncn2c1=O,pIC50,second compound 1 µM,7.16
same,pIC50,second compound 3.16 µM,7.07
same,pIC50,second compound 10 µM,7.11
same,pIC50,second compound 31.6 µM,7.15
same,pIC50,second compound 100 µM,7.27
same,"viability, T/C","second compound 1 µM, first compound 0.00949 µM",118%
same,"viability, T/C","second compound 1 µM, first compound 0.03 µM",100%
same,"viability, T/C","second compound 1 µM, first compound 0.0949 µM",30.9%
same,"viability, T/C","second compound 1 µM, first compound 0.3 µM",3.27%
same,"viability, T/C","second compound 1 µM, first compound 0.949 µM",1.29%
same,"viability, T/C","second compound 1 µM, first compound 3 µM",1.13%
same,"viability, T/C","second compound 3.16 µM, first compound 0.00949 µM",107%
same,"viability, T/C","second compound 3.16 µM, first compound 0.03 µM",110%
same,"viability, T/C","second compound 3.16 µM, first compound 0.0949 µM",44.2%
same,"viability, T/C","second compound 3.16 µM, first compound 0.3 µM",2.74%
same,"viability, T/C","second compound 3.16 µM, first compound 0.949 µM",1.12%
same,"viability, T/C","second compound 3.16 µM, first compound 3 µM",1.25%
same,"viability, T/C","second compound 10 µM, first compound 0.00949 µM",116%
same,"viability, T/C","second compound 10 µM, first compound 0.03 µM",110%
same,"viability, T/C","second compound 10 µM, first compound 0.0949 µM",37.5%
same,"viability, T/C","second compound 10 µM, first compound 0.3 µM",3.68%
same,"viability, T/C","second compound 10 µM, first compound 0.949 µM",1.21%
same,"viability, T/C","second compound 10 µM, first compound 3 µM",1.48%
same,"viability, T/C","second compound 31.6 µM, first compound 0.00949 µM",104%
same,"viability, T/C","second compound 31.6 µM, first compound 0.03 µM",96.5%
same,"viability, T/C","second compound 31.6 µM, first compound 0.0949 µM",33.5%
same,"viability, T/C","second compound 31.6 µM, first compound 0.3 µM",3.27%
same,"viability, T/C","second compound 31.6 µM, first compound 0.949 µM",1.04%
same,"viability, T/C","second compound 31.6 µM, first compound 3 µM",0.93%
same,"viability, T/C","second compound 100 µM, first compound 0.00949 µM",96.8%
same,"viability, T/C","second compound 100 µM, first compound 0.03 µM",77.6%
same,"viability, T/C","second compound 100 µM, first compound 0.0949 µM",24%
same,"viability, T/C","second compound 100 µM, first compound 0.3 µM",2.27%
same,"viability, T/C","second compound 100 µM, first compound 0.949 µM",1.7%
same,"viability, T/C","second compound 100 µM, first compound 3 µM",0.96%
[2H]c1nc(C)nc([2H])c1-c1cc(NC[C@@H](C)c2cccc3c(C(=O)NC)ccnc23)ncn1 + Cn1nnc2c(C(N)=O)ncn2c1=O,pIC50,second compound 1 µM,< 5.00
same,pIC50,second compound 3.16 µM,< 5.00
same,pIC50,second compound 10 µM,< 5.00
same,pIC50,second compound 31.6 µM,< 5.00
same,pIC50,second compound 100 µM,< 5.00
same,"viability, T/C",[1],91.1%
same,"viability, T/C",[2],101%
same,"viability, T/C",[3],95.1%
same,"viability, T/C",[4],96.7%
same,"viability, T/C",[5],98.9%
same,"viability, T/C",[6],78.5%
same,"viability, T/C",[7],104%
same,"viability, T/C",[8],103%
same,"viability, T/C",[9],103%
same,"viability, T/C",[10],98.9%
same,"viability, T/C",[11],96.8%
same,"viability, T/C",[12],84.8%
same,"viability, T/C",[13],101%
same,"viability, T/C",[14],103%
same,"viability, T/C",[15],92.4%
same,"viability, T/C",[16],88.3%
same,"viability, T/C",[17],87.2%
same,"viability, T/C",[18],81.1%
same,"viability, T/C",[19],110%
same,"viability, T/C",[20],99.3%
same,"viability, T/C",[21],100%
same,"viability, T/C",[22],98.7%
same,"viability, T/C",[23],98.3%
same,"viability, T/C",[24],80.3%
same,"viability, T/C",[25],93.1%
same,"viability, T/C",[26],90.2%
same,"viability, T/C",[27],86%
same,"viability, T/C",[28],77.8%
same,"viability, T/C",[29],73.8%
same,"viability, T/C",[30],64.7%
